How the values were obtained:
[1] = Metabolic stability: % metabolism after 60 minutes incubation with active liver microsomes; format: in vitro ADME; settings: compound 5 μM, microsomes 1 mg/ml, NADPH-generating system, 60 minutes at 37 degrees Celsius
Protocol: Sub-cellular tissue preparations were made according to Gorrod et al. (Xenobiotica 5:453-462, 1975) by centrifugal separation after mechanical homogenization of tissue. Liver tissue was rinsed in ice-cold 0.1 M Tris-HCl (pH 7.4) buffer to wash excess blood. Tissue was then blotted dry, weighed and chopped coarsely using surgical scissors. The tissue pieces were homogenized in 3 volumes of ice-cold 0.1 M phosphate buffer (pH 7.4).
Tissue homogenates were centrifuged at 9000×g for 20 minutes at 4° C. The resulting supernatant was stored at −80° C. and is designated ‘S9’.
The S9 fraction can be further centrifuged at 100.000×g for 60 minutes (4° C.). The resulting supernatant was carefully aspirated, aliquoted and designated ‘cytosol’. The pellet was re-suspended in 0.1 M phosphate buffer (pH 7.4) in a final volume of 1 ml per 0.5 g original tissue weight and designated ‘microsomes’.
All sub-cellular fractions were aliquoted, immediately frozen in liquid nitrogen and stored at −80° C. until use.
For the samples to be tested, the incubation mixture contained PBS (0.1M), compound (5 μM), microsomes (1 mg/ml) and a NADPH-generating system (0.8 mM glucose-6-phosphate, 0.8 mM magnesium chloride and 0.8 Units of glucose-6-phosphate dehydrogenase). Control samples contained the same material but the microsomes were replaced by heat inactivated (10 minutes at 95 degrees Celsius) microsomes. Recovery of the compounds in the control samples was always 100%.
The mixtures were preincubated for 5 minutes at 37 degrees Celsius. The reaction was started at time point zero (t=0) by addition of 0.8 mM NADP and the samples were incubated for 60 minutes (t=60). The reaction was terminated by the addition of 2 volumes of DMSO. Then the samples were centrifuged for 10 minutes at 900×g and the supernatants were stored at room temperature for no longer as 24 hours before analysis. All incubations were performed in duplo. Analysis of the supernatants was performed with LC-MS analysis. Elution of the samples was performed on a Xterra MS C18 (50×4.6 mm, 5 μm, Waters, US). An Alliance 2790 (Supplier: Waters, US) HPLC system was used. Elution was with buffer A (25 mM ammoniumacetate (pH 5.2) in H2O/acetonitrile (95/5)), solvent B being acetonitrile and solvent C methanol at a flow rate of 2.4 ml/min. The gradient employed was increasing the organic phase concentration from 0% over 50% B and 50% C in 5 min up to 100% B in 1 minute in a linear fashion and organic phase concentration was kept stationary for an additional 1.5 minutes. Total injection volume of the samples was 25 μl.
A Quatro triple quadrupole mass spectrometer fitted with and ESP source was used as detector. The source and the desolvation temperature were set at 120 and 350° C. respectively and nitrogen was used as nebuliser and drying gas. Data were acquired in positive scan mode (single ion reaction). Cone voltage was set at 10 V and the dwell time was 1 second.
Metabolic stability was expressed as % metabolism of the compound after 60 minutes (equation given as example) of incubation in the presence of active microsomes (E(act))

[2] = target: T1, h5-HT4b (Homo sapiens, UniProt Q13639); assay: 5HT4 antagonism: [3H]GR113808 binding to membranes of h5-HT4b-HEK 293 clone 9 cells; settings: displacement of [3H]GR113808 0.1 nM, h5-HT4b-HEK 293 membranes, 30 min at 25° C.; read-out: pIC50 (5HT4 antagonistic data) (converted)
T1 construct: expressed in transfected cells; host or cells: HEK 293 (clone 9), membrane preparation
T1 sequence (Q13639 whole entry): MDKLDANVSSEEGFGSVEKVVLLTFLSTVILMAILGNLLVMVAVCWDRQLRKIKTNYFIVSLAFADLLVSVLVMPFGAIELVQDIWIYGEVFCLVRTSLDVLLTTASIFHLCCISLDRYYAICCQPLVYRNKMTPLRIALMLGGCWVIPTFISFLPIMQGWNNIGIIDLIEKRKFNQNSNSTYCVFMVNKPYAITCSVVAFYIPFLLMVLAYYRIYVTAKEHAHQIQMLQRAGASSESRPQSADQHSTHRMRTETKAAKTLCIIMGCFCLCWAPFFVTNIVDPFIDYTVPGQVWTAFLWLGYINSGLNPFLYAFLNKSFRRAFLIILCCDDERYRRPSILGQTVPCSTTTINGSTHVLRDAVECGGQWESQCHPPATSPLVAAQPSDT
Procedure, shortened: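 Membranes from h5-HT4b-HEK 293 clone 9 cells were incubated with [3H]GR113808 (0.1 nM as added) in 50 mM HEPES-NaOH pH 7.4 for 30 min at 25 °C. Non-specific binding was defined with a 5-HT4 agonist. Bound radioligand was separated by filtration over PEI-soaked GF/B filters.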

% metabolised compound (compounds of present invention) [1]: 15%
melting point: 108 °C
IC50 [2]: 0.955 nM
Compound: COCCCN1CC[C@@H](CNC(=O)c2cc(C)cc3c2OCCCO3)[C@H](O)C1 [compound 200]

From patent US7638535B2, “4-(aminomethyl)-piperidine benzamides as 5HT4-antagonists” (Janssen Pharmaceutica N.V., priority 2003, dated 2009)
